Measurements reported in US11293931B2, “Quantitative profiling of progesterone metabolites for the prediction of spontaneous preterm delivery” (Indiana University Research and Technology Corporation, priority 2016, dated 2022).

Assays:
CALM2 = assay: Gene array of calmodulin expression with progestogen treatment: CALM2; format: cell-based, human; details: primary myometrial cells treated with a 1:10 M/G ratio; for fold increase in CALM2 expression: compared to DMSO treated controls (FIG. 11)
Method: (§1) The effect of progesterone or HPC treatment on calmodulin gene expression (CALM1, CALM2, CALM3) was further explored. Primary myometrial cells were treated with a 1:10 M/G ratio and a gene array used to assess calmodulin expression. […] The fold change in total CALM expression (trend line for all three isoforms) was approximately half with HPC treatment (4.4-fold) compared to progesterone (8.9-fold) or control treatments (8.3-fold).

CALM1 = assay: Gene array of calmodulin expression with progestogen treatment: CALM1; format: cell-based, human; details: primary myometrial cells treated with a 1:10 M/G ratio, compared to DMSO treated controls (FIG. 11)
Method: as §1

CALM3 = assay: Gene array of calmodulin expression with progestogen treatment: CALM3; format: cell-based, human; details: primary myometrial cells treated with a 1:10 M/G ratio, compared to DMSO treated controls (FIG. 11)
Method: as §1

total CALM expression = assay: Gene array of calmodulin expression with progestogen treatment: total CALM (all three isoforms); format: cell-based, human; details: primary myometrial cells treated with a 1:10 M/G ratio
Method: as §1

[1] = women with a prior history of spontaneous preterm birth; cited from earlier work

| SMILES | reduction in CALM2 expression compared to progesterone treated cells (CALM2) | fold increase in CALM2 expression (CALM2) | change in CALM1 expression (CALM1) | change in CALM3 expression (CALM3) | fold change in total CALM expression (trend line for all three isoforms) (total CALM expression) | reduction in the risk of recurrent sPTB [1] |
| --- | --- | --- | --- | --- | --- | --- |
| CCCCCC(=O)O[C@]1(C(C)=O)CC[C@H]2[C@@H]3CCC4=CC(=O)CC[C@]4(C)[C@H]3CC[C@@]21C [HPC, 17α-hydroxyprogesterone caproate] | ~30% | 9 fold | modest decreases | modest decreases | 4.4 fold | 30-40% |
| CC(=O)[C@H]1CC[C@H]2[C@@H]3CCC4=CC(=O)CC[C@]4(C)[C@H]3CC[C@]12C [progesterone] |  | 13 fold | modest decreases | modest decreases | 8.9 fold |  |
